Measurements from patent US20170008888A1 (KYORIN PHARMACEUTICAL CO., LTD., priority 2014, published 2017).

How the values were obtained:
JAK1 = biological target: T1, JAK1 (Homo sapiens, UniProt P23458); assay: Probe-based (AX9989) kinase profiling in Jurkat lysate: JAK1; type: binding; details: read-out: Kinase inhibition % at indicated screening concentration: JAK1; for inhibition at 0.1 µM: screening concentration 0.1 μM; for inhibition at 1 µM: screening concentration 1.0 μM
T1 construct: screened for activity against several kinases in Jurkat cells; endogenous in cells; host or cells: Jurkat cell lysate
In short: (§1)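 Percent inhibition was derived from reduced LC/MS fragment intensities of probe-labeled peptides relative to compound-free controls. Before labeling with 5 μM AX9989, Mn2+-supplemented (20 mM) Jurkat lysate was exposed to compound for 15 min at room temperature.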

ABL or ARG = assay: Probe-based (AX9989) kinase profiling in Jurkat lysate: ABL or ARG; type: binding
In short: as §1

human PBMCs = assay: Human PBMC TNF-α response to endotoxin (ELISA); type: cell-based; details: 0.1 μg/ml LPS 16 h, read-out: EC50 for the inhibition of the human PBMC TNF-α response to endotoxin, ave. ± S.D.
In short: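 PBMCs at 2e6 cells/ml in RPMI 1640 with 10% charcoal-dextran-treated FBS were pre-treated 1 h at 37 °C with compound (4-point 1:5 dilution from 10 μM). Stimulation with 0.1 μg/ml E. coli 0111:B4 LPS for 16 h; TNF-α measured by ELISA (A450) in 25-fold diluted supernatant.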

ACK = biological target: T2, ACK (Homo sapiens, UniProt Q07912); assay: Probe-based (AX9989) kinase profiling in Jurkat lysate: ACK; type: binding; details: read-out: Kinase inhibition % at indicated screening concentration: ACK; for inhibition at 0.1 µM: screening concentration 0.1 μM; for inhibition at 1 µM: screening concentration 1.0 μM
T2 construct: screened for activity against several kinases in Jurkat cells; endogenous in cells; host or cells: Jurkat cell lysate
In short: as §1

AMPKa1 or AMPKa2 = assay: Probe-based (AX9989) kinase profiling in Jurkat lysate: AMPKa1 or AMPKa2; type: binding
In short: as §1

[1] = biological target: T3, BRD4 bromodomain domain I [BRD4(1)] (Homo sapiens, UniProt O60885); assay: BRD4 bromodomain domain 1 inhibition assay (TR-FRET); type: binding; details: screening concentration 10 μM
T3 construct: BRD4 bromodomain domain I [BRD4(1)]; purchased Cayman Chemicals
In short: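 0.5% DMSO, in triplicate, using Cayman BRD4(1) TR-FRET protocol with slight modification. 670/620 nm ratio normalized to 10 μM JQ1, with DMSO control set as 0% inhibition.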

ERK5 = biological target: T4, ERK5 (Homo sapiens, UniProt Q13164); assay: Probe-based (AX9989 acyl phosphate ATP probe) kinase profiling in Jurkat lysate: ERK5; type: binding; details: for IC50: calculated from percent inhibition of AX9989 labeling and the screening concentration, Jurkat lysate; for inhibition at 0.1 µM: screening concentration 0.1 μM; for inhibition at 0.1 µM / inhibition at 1 µM: read-out: Kinase inhibition % at indicated screening concentration: ERK5; for inhibition at 1 µM: screening concentration 1.0 μM
T4 construct: screened for activity against several kinases in Jurkat cells; endogenous in cells; host or cells: Jurkat cell lysate
In short: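 ERK5 IC50 values came from percent inhibition at the screening concentration, measured as loss of LC/MS signal of probe-labelled active-site peptides. Compound was added for 15 min at room temperature to Jurkat lysate (5 mg/ml, 20 mM MnCl2) before labelling with AX9989 ATP acyl phosphate probe at 5 μM.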

T1 sequence (P23458 whole entry): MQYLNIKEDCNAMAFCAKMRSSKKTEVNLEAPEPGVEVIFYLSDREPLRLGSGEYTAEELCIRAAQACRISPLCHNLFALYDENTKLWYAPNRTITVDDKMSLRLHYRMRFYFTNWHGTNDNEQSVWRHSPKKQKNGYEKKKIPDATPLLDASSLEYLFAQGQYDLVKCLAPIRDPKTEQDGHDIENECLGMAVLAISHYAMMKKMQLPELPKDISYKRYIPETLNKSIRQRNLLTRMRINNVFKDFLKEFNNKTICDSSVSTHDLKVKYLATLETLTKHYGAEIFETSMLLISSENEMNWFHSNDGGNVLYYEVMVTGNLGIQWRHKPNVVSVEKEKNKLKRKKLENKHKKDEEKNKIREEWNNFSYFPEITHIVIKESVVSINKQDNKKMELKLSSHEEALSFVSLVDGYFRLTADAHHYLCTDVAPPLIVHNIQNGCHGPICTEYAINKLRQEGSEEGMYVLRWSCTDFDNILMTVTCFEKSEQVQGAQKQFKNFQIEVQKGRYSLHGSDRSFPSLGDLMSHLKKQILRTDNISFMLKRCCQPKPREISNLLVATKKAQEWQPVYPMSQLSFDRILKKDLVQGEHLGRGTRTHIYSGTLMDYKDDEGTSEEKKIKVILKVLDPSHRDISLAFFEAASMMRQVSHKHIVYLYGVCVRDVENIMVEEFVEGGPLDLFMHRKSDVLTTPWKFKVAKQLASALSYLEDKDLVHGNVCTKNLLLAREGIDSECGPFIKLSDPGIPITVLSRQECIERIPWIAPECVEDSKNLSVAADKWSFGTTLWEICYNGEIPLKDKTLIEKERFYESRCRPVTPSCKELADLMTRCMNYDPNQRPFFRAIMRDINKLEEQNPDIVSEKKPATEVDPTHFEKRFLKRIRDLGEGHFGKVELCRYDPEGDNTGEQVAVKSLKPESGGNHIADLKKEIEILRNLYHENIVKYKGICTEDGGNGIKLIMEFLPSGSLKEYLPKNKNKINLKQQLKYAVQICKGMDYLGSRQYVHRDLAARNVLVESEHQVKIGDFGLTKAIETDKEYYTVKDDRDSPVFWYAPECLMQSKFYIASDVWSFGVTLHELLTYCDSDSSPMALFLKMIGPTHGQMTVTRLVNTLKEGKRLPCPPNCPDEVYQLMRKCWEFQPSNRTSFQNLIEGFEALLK
T4 sequence (Q13164 whole entry): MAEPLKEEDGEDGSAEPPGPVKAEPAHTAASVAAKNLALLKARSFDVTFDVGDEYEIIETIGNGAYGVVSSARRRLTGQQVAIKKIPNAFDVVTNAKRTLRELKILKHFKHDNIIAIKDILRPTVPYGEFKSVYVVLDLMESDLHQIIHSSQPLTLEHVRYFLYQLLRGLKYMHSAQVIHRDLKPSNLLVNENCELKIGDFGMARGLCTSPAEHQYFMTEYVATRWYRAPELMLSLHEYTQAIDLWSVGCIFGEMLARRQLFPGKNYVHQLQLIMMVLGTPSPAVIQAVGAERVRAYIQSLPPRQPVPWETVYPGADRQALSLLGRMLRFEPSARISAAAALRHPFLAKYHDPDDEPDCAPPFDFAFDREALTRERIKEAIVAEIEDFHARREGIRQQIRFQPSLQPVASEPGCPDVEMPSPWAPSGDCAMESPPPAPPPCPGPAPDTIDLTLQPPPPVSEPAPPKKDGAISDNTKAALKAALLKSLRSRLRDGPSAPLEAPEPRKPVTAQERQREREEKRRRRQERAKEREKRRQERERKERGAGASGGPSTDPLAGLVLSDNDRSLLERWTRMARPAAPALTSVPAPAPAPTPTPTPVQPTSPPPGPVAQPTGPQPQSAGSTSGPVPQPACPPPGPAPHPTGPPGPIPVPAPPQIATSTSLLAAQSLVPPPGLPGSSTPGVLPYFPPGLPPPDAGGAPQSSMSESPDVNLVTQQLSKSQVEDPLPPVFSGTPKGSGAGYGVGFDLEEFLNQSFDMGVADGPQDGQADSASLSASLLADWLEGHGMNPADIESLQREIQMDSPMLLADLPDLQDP
T2 sequence (Q07912 whole entry): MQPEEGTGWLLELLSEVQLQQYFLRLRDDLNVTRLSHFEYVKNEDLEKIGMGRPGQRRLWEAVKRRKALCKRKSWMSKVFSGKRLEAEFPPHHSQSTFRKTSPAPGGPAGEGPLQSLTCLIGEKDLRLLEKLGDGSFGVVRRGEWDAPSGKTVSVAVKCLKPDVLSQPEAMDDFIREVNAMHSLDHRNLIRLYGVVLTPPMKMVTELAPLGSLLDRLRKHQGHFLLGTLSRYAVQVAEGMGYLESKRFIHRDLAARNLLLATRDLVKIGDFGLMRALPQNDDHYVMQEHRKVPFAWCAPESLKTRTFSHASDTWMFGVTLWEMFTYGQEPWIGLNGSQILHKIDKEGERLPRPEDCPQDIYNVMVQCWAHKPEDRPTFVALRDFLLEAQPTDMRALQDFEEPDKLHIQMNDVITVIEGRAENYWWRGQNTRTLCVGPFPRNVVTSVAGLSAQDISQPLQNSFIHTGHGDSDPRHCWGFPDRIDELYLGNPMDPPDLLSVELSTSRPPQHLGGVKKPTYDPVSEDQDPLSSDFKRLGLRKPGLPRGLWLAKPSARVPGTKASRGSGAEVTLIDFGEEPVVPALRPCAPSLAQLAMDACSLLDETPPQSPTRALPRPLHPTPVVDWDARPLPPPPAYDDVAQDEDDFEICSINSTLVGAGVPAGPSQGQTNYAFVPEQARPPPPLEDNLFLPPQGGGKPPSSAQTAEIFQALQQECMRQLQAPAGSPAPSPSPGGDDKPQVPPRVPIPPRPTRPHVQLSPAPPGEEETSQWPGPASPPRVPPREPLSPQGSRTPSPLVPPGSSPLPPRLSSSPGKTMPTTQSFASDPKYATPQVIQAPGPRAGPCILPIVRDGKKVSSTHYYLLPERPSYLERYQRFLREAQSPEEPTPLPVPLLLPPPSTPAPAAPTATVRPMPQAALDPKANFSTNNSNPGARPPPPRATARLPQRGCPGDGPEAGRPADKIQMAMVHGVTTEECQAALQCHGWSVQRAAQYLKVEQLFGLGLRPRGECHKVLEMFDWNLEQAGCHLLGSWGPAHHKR

inhibition at 0.1 µM (JAK1)	Kinase inhibition % at indicated screening concentration: ABL or ARG (ABL or ARG; screening concentration 0.1 μM)	inhibition at 0.1 µM (ACK)	Kinase inhibition % at indicated screening concentration: AMPKa1 or AMPKa2 (AMPKa1 or AMPKa2; screening concentration 0.1 μM)	inhibition at 10 µM [1]	IC50 (ERK5)	inhibition at 0.1 µM (ERK5)	inhibition at 1 µM (JAK1)	Kinase inhibition % at indicated screening concentration: ABL or ARG (ABL or ARG; screening concentration 1.0 μM)	inhibition at 1 µM (ACK)	Kinase inhibition % at indicated screening concentration: AMPKa1 or AMPKa2 (AMPKa1 or AMPKa2; screening concentration 1.0 μM)	inhibition at 1 µM (ERK5)	SMILES	EC50 (human PBMCs)
–	–	–	–	70 to 85%	> 0.5 µM	–	≤ 35%	E (E is ≦35%)	≤ 35%	E (E is ≦35%)	50 to 75%	CCOc1cc(C(=O)N[C@H]2CCCOC2)ccc1Nc1cc2c(cn1)N(C)C(=O)c1ccccc1N2C [Compound 100]	1.02 µM
–	–	–	–	< 70%	0.101 to 0.5 µM	–	≤ 35%	E (E is ≦35%)	≤ 35%	E (E is ≦35%)	75 to 90%	CN1C(=O)c2ccccc2N(C)c2cc(NC3CCOCC3)ncc21 [Compound 102]	2.52 µM
–	–	–	–	70 to 85%	0.101 to 0.5 µM	–	≤ 35%	E (E is ≦35%)	≤ 35%	E (E is ≦35%)	75 to 90%	CCOc1cc(C(=O)NCCN2CCCC2)ccc1Nc1cc2c(cn1)N(C)C(=O)c1ccccc1N2C [Compound 105]	1.1 µM
–	–	–	–	< 70%	> 0.5 µM	–	≤ 35%	E (E is ≦35%)	≤ 35%	E (E is ≦35%)	50 to 75%	CCOc1cc(C(=O)NCCc2ccncc2)ccc1Nc1cc2c(cn1)N(C)C(=O)c1ccccc1N2C [Compound 107]	1.31 µM
–	–	–	–	70 to 85%	≤ 0.05 µM	–	≤ 35%	E (E is ≦35%)	≤ 35%	E (E is ≦35%)	> 90%	CCOc1cc(C(=O)N2CCN(CC)CC2)ccc1Nc1cc2c(cn1)N(C)C(=O)c1ccccc1N2C [Compound 108]	0.7 µM

The remaining lines, values behind:

SMILES	inhibition at 0.1 µM (JAK1)	Kinase inhibition % at indicated screening concentration: ABL or ARG (ABL or ARG; screening concentration 0.1 μM)	inhibition at 0.1 µM (ACK)	Kinase inhibition % at indicated screening concentration: AMPKa1 or AMPKa2 (AMPKa1 or AMPKa2; screening concentration 0.1 μM)	inhibition at 10 µM [1]	IC50 (ERK5)	inhibition at 0.1 µM (ERK5)	inhibition at 1 µM (JAK1)	Kinase inhibition % at indicated screening concentration: ABL or ARG (ABL or ARG; screening concentration 1.0 μM)	inhibition at 1 µM (ACK)	Kinase inhibition % at indicated screening concentration: AMPKa1 or AMPKa2 (AMPKa1 or AMPKa2; screening concentration 1.0 μM)	inhibition at 1 µM (ERK5)	EC50 (human PBMCs)
CCOc1cc(C(=O)N2CCC[C@H](O)C2)ccc1Nc1cc2c(cn1)N(C)C(=O)c1ccccc1N2C [Compound 96]	≤ 35%	E (E is ≦35%)	≤ 35%	E (E is ≦35%)	> 85%	≤ 0.05 µM	> 90%	–	–	–	–	–	0.57 µM
CCOc1cc(C(=O)NCCOCCO)ccc1Nc1cc2c(cn1)N(C)C(=O)c1ccccc1N2C [Compound 101]	–	–	–	–	70 to 85%	0.101 to 0.5 µM	–	≤ 35%	E (E is ≦35%)	≤ 35%	E (E is ≦35%)	75 to 90%	0.97 µM
CCOc1cc(C(=O)NCCN(CC)CC)ccc1Nc1cc2c(cn1)N(C)C(=O)c1ccccc1N2C [Compound 103]	≤ 35%	E (E is ≦35%)	≤ 35%	E (E is ≦35%)	70 to 85%	≤ 0.05 µM	> 90%	–	–	–	–	–	0.62 ± 0.04 µM
Cc1cc(CN2CCCC2)ccc1Nc1cc2c(cn1)N(C)C(=O)c1ccccc1N2C [Compound 106, 5,11-dimethyl-3-(2-methyl-4-(pyrrolidin-1-ylmethyl)phenylamino)-5H-benzo[e]pyrido[3,4-b][1,4]diazepin-10(11H)-one]	–	–	–	–	< 70%	≤ 0.05 µM	–	≤ 35%	E (E is ≦35%)	≤ 35%	E (E is ≦35%)	> 90%	2.84 µM
